In paper PMC5880808, “A lever-like transduction pathway for long-distance chemical- and mechano-gating of the mechanosensitive Piezo1 channel” (Nature Communications, 2018):
Values after ≈ are worked out from the molar mass of the structure shown.

Columns and labels:
mPiezo1(1–2190) = molecular target: T1, mPiezo1(1–2190) (Mus musculus, UniProt E2JF22); experiment: SPR binding to immobilized purified protein; settings: FPLC fraction of trimeric proteins
T1 construct: N-terminal fragment containing residues 1–2190 [mPiezo1(1–2190)]; GST (PreScission site) (cleaved yes); made in house; host or cells: HEK293T
Text: Since Jedi1/2 act through the extracellular side of Piezo1, we asked if it might bind to the C-terminal extracellular domain (CED; 2214–2457) that trimerizes to form the extracellular Cap-structure of the central ion-conducting pore module (Fig. 1)[8]. However, none of Jedi1/2, Yoda1, and the control compound bound to the purified CED proteins (without the use of the C12E10 detergent since they are soluble proteins; Fig. 4a–h). We next purified the large N-terminal fragment containing residues 1–2190 [mPiezo1(1–2190)] using the same purification procedure for mPiezo1. […] We used the FPLC fraction corresponding to the trimeric proteins (peak 2 of Supplementary Fig. 2d) for SPR binding assay. […] Given that Jedi1/2 function through the extracellular side, we propose that Jedi1/2 bind to the extracellular loop regions of the blade. The distant location of the Jedi action region relative to the pore indicates a distinct long-distance allosteric gating of Piezo1.
Real-time binding and analysis by SPR were conducted on BIAcore T200 instrument (GE Healthcare) at 25 °C. Proteins were immobilized on a research-grade CM5 sensor chip by amine-coupling methods. During the pH scouting process, 10 mM sodium acetate at various pH including 4.0, 4.5, 5.0, and 5.5 and protein concentrations varying between 10 and 100 μg/ml were screened before immobilization. Except pH 4.5 for mPiezo1-(1–2190), pH 5.0 was used for all other proteins, including mPiezo1, CED, Δ15-16, and Δ19-20. All proteins were diluted to 50 μg/ml in buffer containing 10 mM sodium acetate at the abovementioned pH, 0.026% C12E10 detergent, and 150 mM NaCl, except that the soluble CED proteins, which were diluted in 150 mM NaCl without detergent. […]
For data collection, compounds at various concentrations were diluted in a running buffer containing 1× PBS, 0.026% detergent C12E10, and 0.05% Surfactant P20 (GE Healthcare Bio-Sciences AB) and injected over the flow cells with at a 30 μl/min flow rate. […] Data were analyzed with the BIAcore T200 evaluation software by fitting to a 1:1 affinity-binding model.

mPiezo1 [1] = molecular target: T2, mPiezo1 (Mus musculus, UniProt E2JF22); experiment: Fura-2 single-cell Ca2+ imaging of mPiezo1-mCherry-transfected HEK293T cells; assay type: cell-based; settings: for Ca2+ response (Fura-2 ratio): mCherry-positive HEK293T cells transfected with mPiezo1-mCherry
T2 construct: The full-length mPiezo1 has 2547 amino acids in each monomer; expressed in transfected cells; host or cells: HEK293T
Description: Fura-2 single-cell Ca^2+ imaging was performed according to the previous protocol. In brief, mCherry-Piezo1 cDNA (1 μg)-transfected HEK293T cells were plated onto 12-mm round glass coverslips, which were coated with poly-D-lysine and placed in 24-well plates, and subject to Fura-2 single-cell Ca^2+ imaging about 36 h post transfection. Cells were washed with buffer containing 1× HBSS (1.3 mM Ca^2+) and 10 mM HEPES (pH 7.2), incubated with 2.5 μM Fura-2 and 0.05% Pluronic F-127 (Life Technologies) for 30 min, then washed again with the previously mentioned buffer. The coverslip was mounted into an inverted Nikon-Tie microscope equipped with a CoolSNAP charge-coupled devise (CCD) camera and Lambda XL light box (Sutter Instrument), and mCherry-positive and -negative cells were selected for measurement of the 340/380 ratio with a ×20 objective (numerical aperture 0.75) using the MetaFluor Fluorescence Ratio Imaging software (Molecular Device).

mPiezo1 [2] = molecular target: T2, mPiezo1; experiment: Cell-attached patch with pressure clamp (stretch-activated currents); assay type: cell-based; settings: absence of externally applied pressure, compound in pipette, vs DMSO
Water solubility = assay type: physicochemical; settings: up to
mPiezo1 [3] = molecular target: T2, mPiezo1; experiment: FLIPR GCAMP6s Ca2+ response of transfected HEK293T cells; assay type: cell-based; settings: for EC50: Boltzmann fit, vector signal subtracted
Text: Pharmacological compounds are invaluable tools for probing the structure-function relationship of ion channels. To identify specific chemical activators of Piezo channels, we have used the fluorescent imaging plate reader (FLIPR) in a 96-well format to screen about 3000 compounds for those that can evoke Ca^2+ increase in human embryonic kidney 293T (HEK293T) cells co-transfected with either mPiezo1 or mPiezo2, and the genetically encoded Ca^2+ reporter GCAMP6s (high Ca^2+ sensitivity but slow kinetics)[43]. We initially selected compounds that evoked Ca^2+ response in either Piezo1- or Piezo2-transfected cells and subsequently ruled out those nonspecific hits that caused Ca^2+ response in Piezo1-, Piezo2-, and vector-transfected cells (Fig. 2a). Eventually, we identified Jedi1 and Jedi2 as Piezo1 chemical activators, but no specific Piezo2 activators.
HEK293T cells were grown in Dulbecco’s modified Eagle medium containing 4.5 mg/ml glucose, 10% fetal bovine serum, and 1% penicillin/streptomycin. Cells were seeded in 50 μg/ml poly-D-lysine-coated 96-well plates (3 × 10^4 cells/well) and allowed to grow for about 18 h, and then co-transfected with a total of 250 ng cDNA containing Piezo1 or Piezo2 and GCaMP6s using Lipofectamine 2000 (Invitrogen, Life Technology). Two days after transfection the cells were washed with buffer containing 1× Hanks’ balanced salt solution (HBSS; 1.3 mM Ca^2+) and 10 mM HEPES (pH 7.2). The 96-well plates were then transferred to the FLIPR Tetra (Molecular Device) for monitoring the GCAMP6s fluorescence before and after addition of the compounds that were prepared in separate compound plates. For the initial screening, we screened about 3000 compounds derived from either the chemical library collected in Dr. Yu Rao’s lab, which is composed of different classes of heterocycles, including various drug scaffold or the Maybridge Ro3 Diversity Fragment Library purchased from Maybridge (Cambridge, UK), which consists of 2500 fragment compounds with a molecular weight below 350 and high rule of three compliance. Each compound was tested at a final concentration of 200 μM. Approximately 20 positive hits were selected for further testing in Piezo1-, Piezo2-, or vector-transfected cells. For subsequent characterizations, Jedi1 was purchased from the company of Alfa Aesar, while Jedi2 and Yoda1 were synthesized in the laboratories of Drs. Wei He and Liansuo Zu, respectively. See the Supplementary Experiment Procedures for the chemical synthesis. The dose response measurement by FLIPR was similar to previously described.

T2 sequence (E2JF22 whole entry): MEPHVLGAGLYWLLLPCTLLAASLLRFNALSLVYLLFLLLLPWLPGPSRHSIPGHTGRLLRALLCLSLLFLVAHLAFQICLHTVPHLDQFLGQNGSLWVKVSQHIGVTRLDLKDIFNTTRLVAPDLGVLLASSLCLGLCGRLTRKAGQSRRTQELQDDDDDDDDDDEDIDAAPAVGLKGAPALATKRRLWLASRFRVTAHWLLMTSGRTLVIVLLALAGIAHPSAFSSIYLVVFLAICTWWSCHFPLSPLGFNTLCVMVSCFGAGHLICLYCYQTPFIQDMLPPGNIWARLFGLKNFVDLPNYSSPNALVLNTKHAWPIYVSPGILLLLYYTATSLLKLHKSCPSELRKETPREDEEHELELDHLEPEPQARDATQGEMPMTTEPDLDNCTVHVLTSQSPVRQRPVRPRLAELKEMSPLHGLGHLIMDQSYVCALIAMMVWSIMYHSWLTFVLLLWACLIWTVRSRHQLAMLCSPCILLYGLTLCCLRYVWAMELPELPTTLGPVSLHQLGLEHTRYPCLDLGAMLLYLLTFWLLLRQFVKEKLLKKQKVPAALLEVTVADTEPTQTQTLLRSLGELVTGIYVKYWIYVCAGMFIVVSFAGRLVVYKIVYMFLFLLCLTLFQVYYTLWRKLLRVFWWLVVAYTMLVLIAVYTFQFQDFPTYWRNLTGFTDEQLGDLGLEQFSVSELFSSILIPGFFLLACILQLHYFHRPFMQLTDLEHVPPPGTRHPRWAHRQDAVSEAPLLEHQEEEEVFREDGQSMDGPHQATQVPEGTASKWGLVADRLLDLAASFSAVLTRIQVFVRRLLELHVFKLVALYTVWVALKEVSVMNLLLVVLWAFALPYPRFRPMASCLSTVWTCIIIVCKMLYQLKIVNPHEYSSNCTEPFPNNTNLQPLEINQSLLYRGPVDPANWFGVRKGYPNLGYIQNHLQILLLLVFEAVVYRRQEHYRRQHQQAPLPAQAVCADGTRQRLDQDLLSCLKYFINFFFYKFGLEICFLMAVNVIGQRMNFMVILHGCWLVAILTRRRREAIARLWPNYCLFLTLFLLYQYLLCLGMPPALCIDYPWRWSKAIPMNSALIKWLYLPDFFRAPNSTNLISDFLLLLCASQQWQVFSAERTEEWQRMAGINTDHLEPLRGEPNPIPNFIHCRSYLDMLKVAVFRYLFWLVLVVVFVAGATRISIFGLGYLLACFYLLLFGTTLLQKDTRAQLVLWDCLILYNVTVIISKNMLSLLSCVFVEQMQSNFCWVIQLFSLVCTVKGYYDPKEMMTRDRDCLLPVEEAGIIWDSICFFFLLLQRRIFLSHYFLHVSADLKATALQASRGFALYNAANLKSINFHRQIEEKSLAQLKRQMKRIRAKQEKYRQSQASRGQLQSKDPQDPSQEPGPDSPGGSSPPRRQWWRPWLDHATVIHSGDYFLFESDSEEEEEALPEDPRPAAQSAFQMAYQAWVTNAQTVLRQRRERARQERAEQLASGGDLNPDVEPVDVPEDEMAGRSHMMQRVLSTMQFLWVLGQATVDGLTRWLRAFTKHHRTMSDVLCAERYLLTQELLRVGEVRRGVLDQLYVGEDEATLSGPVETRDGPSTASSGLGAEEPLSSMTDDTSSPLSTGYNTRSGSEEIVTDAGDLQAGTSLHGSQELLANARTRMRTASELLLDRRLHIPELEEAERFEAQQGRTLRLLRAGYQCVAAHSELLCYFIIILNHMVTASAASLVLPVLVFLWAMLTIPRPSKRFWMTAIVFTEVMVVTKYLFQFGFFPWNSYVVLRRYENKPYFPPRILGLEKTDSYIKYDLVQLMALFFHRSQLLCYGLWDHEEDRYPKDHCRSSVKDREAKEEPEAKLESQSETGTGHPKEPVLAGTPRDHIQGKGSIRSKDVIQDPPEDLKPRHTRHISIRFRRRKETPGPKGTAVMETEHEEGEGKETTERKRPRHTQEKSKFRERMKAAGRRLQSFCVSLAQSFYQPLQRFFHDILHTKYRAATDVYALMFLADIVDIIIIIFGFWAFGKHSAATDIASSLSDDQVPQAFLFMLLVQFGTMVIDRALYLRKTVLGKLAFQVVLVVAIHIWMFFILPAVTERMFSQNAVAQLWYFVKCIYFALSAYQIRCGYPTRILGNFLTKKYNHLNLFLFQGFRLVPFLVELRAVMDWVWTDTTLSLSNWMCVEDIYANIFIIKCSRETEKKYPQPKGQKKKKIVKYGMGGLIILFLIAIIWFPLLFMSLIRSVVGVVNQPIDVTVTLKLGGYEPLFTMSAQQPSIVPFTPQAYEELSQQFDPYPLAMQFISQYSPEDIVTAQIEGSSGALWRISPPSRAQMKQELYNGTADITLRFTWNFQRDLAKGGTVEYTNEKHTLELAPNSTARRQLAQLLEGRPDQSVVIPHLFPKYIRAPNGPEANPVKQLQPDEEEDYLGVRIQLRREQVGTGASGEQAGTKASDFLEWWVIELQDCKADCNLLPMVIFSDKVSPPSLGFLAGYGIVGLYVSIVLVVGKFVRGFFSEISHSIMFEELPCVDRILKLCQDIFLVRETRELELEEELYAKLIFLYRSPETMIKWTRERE
T1 sequence (E2JF22 1-2190): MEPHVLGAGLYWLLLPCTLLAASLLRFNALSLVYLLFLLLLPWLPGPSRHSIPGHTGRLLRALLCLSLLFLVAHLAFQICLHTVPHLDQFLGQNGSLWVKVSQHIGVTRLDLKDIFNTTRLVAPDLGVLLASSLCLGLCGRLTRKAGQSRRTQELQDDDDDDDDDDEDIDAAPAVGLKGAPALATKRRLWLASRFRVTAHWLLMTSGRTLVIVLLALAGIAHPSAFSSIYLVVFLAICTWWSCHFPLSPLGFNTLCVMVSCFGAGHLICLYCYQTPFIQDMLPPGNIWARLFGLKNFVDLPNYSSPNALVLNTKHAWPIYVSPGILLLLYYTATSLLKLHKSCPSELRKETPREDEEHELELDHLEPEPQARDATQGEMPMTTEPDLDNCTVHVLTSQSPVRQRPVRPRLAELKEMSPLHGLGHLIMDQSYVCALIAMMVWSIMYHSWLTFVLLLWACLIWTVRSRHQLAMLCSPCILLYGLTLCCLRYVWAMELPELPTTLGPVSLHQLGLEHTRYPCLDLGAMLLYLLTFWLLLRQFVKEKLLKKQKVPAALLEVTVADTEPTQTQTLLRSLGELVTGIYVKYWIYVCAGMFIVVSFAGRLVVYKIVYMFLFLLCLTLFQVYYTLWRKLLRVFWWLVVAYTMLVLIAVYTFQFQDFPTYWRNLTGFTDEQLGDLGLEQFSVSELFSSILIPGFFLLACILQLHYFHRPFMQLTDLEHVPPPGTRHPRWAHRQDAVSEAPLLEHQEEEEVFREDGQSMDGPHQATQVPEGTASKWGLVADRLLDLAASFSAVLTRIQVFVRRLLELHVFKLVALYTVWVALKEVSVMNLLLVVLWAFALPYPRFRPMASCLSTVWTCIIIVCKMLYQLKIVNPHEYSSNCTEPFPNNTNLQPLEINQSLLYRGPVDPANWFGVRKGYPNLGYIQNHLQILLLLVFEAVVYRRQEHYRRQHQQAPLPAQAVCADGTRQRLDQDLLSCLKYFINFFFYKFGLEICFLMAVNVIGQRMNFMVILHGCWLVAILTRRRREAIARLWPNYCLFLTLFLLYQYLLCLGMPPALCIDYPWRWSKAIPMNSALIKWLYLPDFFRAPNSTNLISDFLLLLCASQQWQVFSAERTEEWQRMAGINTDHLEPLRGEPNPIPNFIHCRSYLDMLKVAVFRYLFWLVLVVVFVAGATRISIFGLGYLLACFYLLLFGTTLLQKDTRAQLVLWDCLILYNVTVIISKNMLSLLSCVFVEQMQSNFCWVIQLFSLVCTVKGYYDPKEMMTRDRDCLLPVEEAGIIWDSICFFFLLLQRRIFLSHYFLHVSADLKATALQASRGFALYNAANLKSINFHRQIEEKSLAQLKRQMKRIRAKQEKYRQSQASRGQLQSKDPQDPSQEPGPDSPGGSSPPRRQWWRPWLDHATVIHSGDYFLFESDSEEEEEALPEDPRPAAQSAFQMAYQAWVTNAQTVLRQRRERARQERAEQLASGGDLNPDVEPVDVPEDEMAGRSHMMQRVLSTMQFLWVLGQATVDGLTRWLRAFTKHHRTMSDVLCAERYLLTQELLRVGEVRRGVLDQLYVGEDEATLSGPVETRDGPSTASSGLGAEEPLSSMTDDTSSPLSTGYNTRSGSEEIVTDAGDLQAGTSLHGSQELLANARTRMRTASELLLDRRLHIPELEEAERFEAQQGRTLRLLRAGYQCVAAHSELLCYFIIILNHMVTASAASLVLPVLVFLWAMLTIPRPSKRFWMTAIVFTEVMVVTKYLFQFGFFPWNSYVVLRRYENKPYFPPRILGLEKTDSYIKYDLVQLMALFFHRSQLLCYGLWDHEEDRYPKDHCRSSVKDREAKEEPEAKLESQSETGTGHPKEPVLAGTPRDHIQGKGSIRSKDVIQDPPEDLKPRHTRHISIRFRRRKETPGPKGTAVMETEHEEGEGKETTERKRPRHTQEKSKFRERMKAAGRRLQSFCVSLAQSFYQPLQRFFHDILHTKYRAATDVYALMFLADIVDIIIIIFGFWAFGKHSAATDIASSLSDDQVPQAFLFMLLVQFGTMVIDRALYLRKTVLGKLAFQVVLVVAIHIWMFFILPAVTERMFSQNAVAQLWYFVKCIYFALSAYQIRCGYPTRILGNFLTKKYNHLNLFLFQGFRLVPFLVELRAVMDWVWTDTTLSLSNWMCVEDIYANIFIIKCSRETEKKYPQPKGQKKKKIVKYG

SMILES	binding to mPiezo1(1–2190) proteins (SPR) (mPiezo1(1–2190))	time course of the induced Ca2+ response (mPiezo1 [1]; Fura-2 single-cell imaging)	Ca2+ response (Fura-2 ratio) (mPiezo1 [1])	fold change of NPo (mPiezo1 [2]) [fold]	solubility (Water solubility) [µM]	Hill coefficient (mPiezo1 [3])	EC50 (mPiezo1 [3]) [µM]
Clc1cccc(Cl)c1CSc1nnc(-c2cnccn2)s1 [Yoda1, reference compound]	virtually identical fashion as to mPiezo1	slow activation, no decay, and poor reversibility	also responded to Yoda1	3.1 ± 1.3			
Cc1oc(-c2ccccc2)cc1C(=O)O [Jedi1]	virtually identical fashion as to mPiezo1		caused an increase in Ca^2+	4.7 ± 1.4	~2000 (≈ 404 µg/mL)	~ 1.5	~200
Cc1oc(-c2cccs2)cc1C(=O)O [Jedi2]	virtually identical fashion as to mPiezo1		caused an increase in Ca^2+		~2000 (≈ 416 µg/mL)	1.6	158
